Assay results taken from the Kinase Knowledgebase extract (Sharma et al. 2016).
pIC50: −log10 of the molar value.

Molecular target: PIK3CG (human) (UniProt P48736)
Test: Inhibition of PIK3CG Kinase Activity

Chain of PIK3CG (human) (P48736 whole entry, looked up): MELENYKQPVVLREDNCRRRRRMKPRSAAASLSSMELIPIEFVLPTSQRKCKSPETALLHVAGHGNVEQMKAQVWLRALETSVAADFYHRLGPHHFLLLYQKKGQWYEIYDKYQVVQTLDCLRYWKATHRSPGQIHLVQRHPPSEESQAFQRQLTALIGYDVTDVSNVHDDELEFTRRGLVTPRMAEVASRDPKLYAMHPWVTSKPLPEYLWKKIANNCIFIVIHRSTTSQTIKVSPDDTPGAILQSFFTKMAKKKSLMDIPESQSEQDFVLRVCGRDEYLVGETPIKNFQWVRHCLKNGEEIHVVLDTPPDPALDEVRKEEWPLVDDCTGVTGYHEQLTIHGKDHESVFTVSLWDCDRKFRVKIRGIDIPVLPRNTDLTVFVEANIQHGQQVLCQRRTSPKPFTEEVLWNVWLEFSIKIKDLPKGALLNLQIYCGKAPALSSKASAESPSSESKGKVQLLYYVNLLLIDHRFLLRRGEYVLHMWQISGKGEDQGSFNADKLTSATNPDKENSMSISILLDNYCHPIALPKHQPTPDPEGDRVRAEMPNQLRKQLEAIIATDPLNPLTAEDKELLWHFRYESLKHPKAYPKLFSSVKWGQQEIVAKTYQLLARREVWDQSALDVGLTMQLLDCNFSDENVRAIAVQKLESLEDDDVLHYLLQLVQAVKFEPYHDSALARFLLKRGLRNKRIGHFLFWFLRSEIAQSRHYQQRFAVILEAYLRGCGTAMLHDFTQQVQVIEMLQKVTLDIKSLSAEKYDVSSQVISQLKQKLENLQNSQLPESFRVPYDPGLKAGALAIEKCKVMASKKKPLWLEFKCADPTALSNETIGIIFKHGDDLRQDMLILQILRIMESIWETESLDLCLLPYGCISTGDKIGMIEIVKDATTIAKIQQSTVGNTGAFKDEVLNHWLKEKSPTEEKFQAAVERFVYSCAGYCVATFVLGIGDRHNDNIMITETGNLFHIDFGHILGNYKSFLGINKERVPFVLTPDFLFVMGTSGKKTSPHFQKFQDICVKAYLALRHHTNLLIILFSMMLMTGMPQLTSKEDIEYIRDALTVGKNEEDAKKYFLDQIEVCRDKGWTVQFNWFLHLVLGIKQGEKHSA

| Compound | pIC50 |
| --- | --- |
| CC(=O)Nc1nc2c(s1)-c1c(c(C3CC3)nn1-c1ccc(C(=O)N(C)[C@@H]3CCN(CC4CCCC4)C3)cc1C)CC2 | > 6.22 |
| CC(=O)Nc1nc2c(s1)-c1c(c(C3CC3)nn1-c1ccc(C(=O)NC[C@@H]3CCN(C4CCCC4)C3)c(Cl)c1)CC2 | > 6.22 |
| CC(=O)Nc1nc2c(s1)-c1c(c(C3CC3)nn1-c1ccc(C(=O)NC3CCN(CC4CCCCC4)CC3)cc1F)CC2 | > 6.22 |
| COc1cc(-n2nc(C3CC3)c3c2-c2sc(NC(C)=O)nc2CC3)ccc1C(=O)N1CCC(N2CCCC2)CC1 | > 6.22 |
| CC(=O)Nc1nc2c(s1)-c1c(c(C3CC3)nn1-c1ccc(C(=O)NCC3CCN(CC4CCCC4)CC3)c(Cl)c1)CC2 | > 6.22 |
| CC(=O)Nc1nc2c(s1)-c1c(c(C3CC3)nn1-c1ccc(C(=O)N[C@H]3CC[C@@H](N(C)CC4CC4)CC3)c(F)c1)CC2 | > 6.22 |
| CC(=O)Nc1nc2c(s1)-c1c(c(C3CC3)nn1-c1ccc(C(=O)NC3CCN(C4CCCC4)CC3)c(Cl)c1)CC2 | > 6.22 |
| CC(=O)Nc1nc2c(s1)-c1c(c(C3CC3)nn1C1CCC(C(N)=O)CC1)CC2 (stereo not given) | > 6.22 |
| CC(=O)Nc1nc2c(s1)-c1c(c(C3CC3)nn1-c1ccc(C(=O)N(C)[C@@H]3CCN(CC4CCCC4)C3)cc1F)CC2 | > 6.22 |
| CC(=O)Nc1nc2c(s1)-c1c(c(C3CC3)nn1[C@H]1CC[C@H](C(=O)NC3CCN(C4CCCC4)CC3)CC1)CC2 | > 6.22 |
| CC(=O)Nc1nc2c(s1)-c1c(c(C3CC3)nn1-c1ccc(C(=O)N[C@@H]3CCN(CC4CCCC4)C3)c(Cl)c1)CC2 | > 6.22 |
| CC(=O)Nc1nc2c(s1)-c1c(c(C3CC3)nn1-c1ccc(C(=O)N3CCC(N4CCCC4)CC3)c(Cl)c1)CC2 | > 6.22 |
| CC(=O)Nc1nc2c(s1)-c1c(c(C3CC3)nn1-c1ccc(C(=O)N(C)[C@H]3CCN(C4CCCCC4)C3)c(C)c1)CC2 | > 6.22 |
| COc1cc(-n2nc(C3CC3)c3c2-c2sc(NC(C)=O)nc2CC3)ccc1C(=O)N(C)C1CCC(N2CCCC2)CC1 (stereo not given) | > 6.22 |
| CC(=O)Nc1nc2c(s1)-c1c(c(C3CC3)nn1-c1ccc(C(=O)N[C@H]3CC[C@@H](N(C)CC4CCCC4)CC3)cc1F)CC2 | > 6.22 |
| CC(=O)Nc1nc2c(s1)-c1c(c(C3CC3)nn1-c1ccc(C(=O)N(C)[C@H]3CC[C@@H](N(C)CC4CCCC4)CC3)c(C)c1)CC2 | > 6.22 |
| CC(=O)Nc1nc2c(s1)-c1c(c(C3CC3)nn1C1CCN(C(=O)C3CCN(CC4CCCC4)CC3)CC1)CC2 | > 6.22 |
| CC(=O)Nc1nc2c(s1)-c1c(c(C3CC3)nn1-c1ccc(C(=O)NC[C@H]3CCCN3C3CCCC3)c(Cl)c1)CC2 | > 6.22 |
| CC(=O)Nc1nc2c(s1)-c1c(c(C3CC3)nn1[C@H]1CC[C@@H](C(=O)NC3CCN(C4CCCC4)CC3)CC1)CC2 | > 6.22 |
| CC(=O)Nc1nc2c(s1)-c1c(c(C3CC3)nn1-c1ccc(C(=O)N[C@H]3CC[C@@H](N4CCCCC4)CC3)c(F)c1)CC2 | > 6.22 |
| CC(=O)Nc1nc2c(s1)-c1c(c(C3CC3)nn1-c1ccc(C(=O)NC3CCN(C4CCOCC4)CC3)c(C)c1)CC2 | > 6.22 |

| Compound | pIC50 |
| --- | --- |
| CC(=O)Nc1nc2c(s1)-c1c(c(C3CC3)nn1-c1ccc(C(=O)N(C)[C@H]3CC[C@@H](N4CCCC4)CC3)c(C)c1)CC2 | > 6.22 |
| CC(=O)Nc1nc2c(s1)-c1c(c(C3CC3)nn1-c1ccc(C(=O)N3CCC(N(C)C4CCCC4)CC3)c(Cl)c1)CC2 | > 6.22 |
| CC(=O)Nc1nc2c(s1)-c1c(c(C3CC3)nn1C1CCN(C(=O)N3CCN(C(C)C)CC3)CC1)CC2 | > 6.22 |
| CC(=O)Nc1nc2c(s1)-c1c(c(C3CC3)nn1-c1ccc(C(=O)N(C)C[C@H]3CCN(C4CCCC4)C3)c(Cl)c1)CC2 | > 6.22 |
| CC(=O)Nc1nc2c(s1)-c1c(c(C3CC3)nn1C1CCC(C(=O)NC3CCN(C4CCCC4)CC3)CC1)CC2 (stereo not given) | > 6.22 |
| CC(=O)Nc1nc2c(s1)-c1c(c(C3CC3)nn1-c1ccc(C(=O)N[C@@H]3CCN(C4CCCCC4)C3)c(F)c1)CC2 | > 6.22 |
| CC(=O)Nc1nc2c(s1)-c1c(c(C3CC3)nn1-c1ccc(C(=O)N(C)[C@@H]3CCN(CC4CCCC4)C3)c(C)c1)CC2 | > 6.22 |
| CC(=O)Nc1nc2c(s1)-c1c(c(C3CC3)nn1-c1ccc(C(=O)NC3CCN(C4CCCCC4)CC3)c(F)c1)CC2 | > 6.22 |
| CC(=O)Nc1nc2c(s1)-c1c(c(C3CC3)nn1-c1ccc(C(=O)NC3CCN(C4CCOCC4)CC3)c(F)c1)CC2 | > 6.22 |
| CCN(C(=O)c1ccc(-n2nc(C3CC3)c3c2-c2sc(NC(C)=O)nc2CC3)c(C)c1)[C@H]1CC[C@@H](N2CCCC2)CC1 | > 6.22 |
| CC(=O)Nc1nc2c(s1)-c1c(c(C3CC3)nn1-c1ccc(C(=O)N3CCC(CN4CCCC4)CC3)c(Cl)c1)CC2 | > 6.22 |
| CC(=O)Nc1nc2c(s1)-c1c(c(C3CC3)nn1-c1ccc(C(=O)N[C@H]3CC[C@@H](N4CCOCC4)CC3)cc1F)CC2 | > 6.22 |
| CC(=O)Nc1nc2c(s1)-c1c(c(C3CC3)nn1-c1ccc(C(=O)N3CCC(N4CCCC4)CC3)c(C)c1)CC2 | > 6.22 |
| CC(=O)Nc1nc2c(s1)-c1c(c(C3CC3)nn1-c1ccc(C(=O)NC3CCN(C4CCCCC4)CC3)c(Cl)c1)CC2 | > 6.22 |
| CC(=O)Nc1nc2c(s1)-c1c(c(C3CC3)nn1-c1ccc(C(=O)NC3CCN(C4CCCC4)CC3)c(C)c1)CC2 | > 6.22 |
| CC(=O)Nc1nc2c(s1)-c1c(c(C3CC3)nn1-c1ccc(C(=O)N[C@@H]3CCN(C4CCCC4)C3)c(Cl)c1)CC2 | > 6.22 |
| CC(=O)Nc1nc2c(s1)-c1c(c(C3CC3)nn1-c1ccc(C(=O)NC3CCN(C4CCOCC4)CC3)cc1F)CC2 | > 6.22 |
| CC(=O)Nc1nc2c(s1)-c1c(c(C3CC3)nn1-c1ccc(C(=O)NC[C@@H]3CCCN3CC3CCCC3)c(Cl)c1)CC2 | > 6.22 |
| CC(=O)Nc1nc2c(s1)-c1c(c(C3(C)CC3)nn1-c1ccccc1Cl)CC2 | > 6.22 |
| CC(=O)Nc1nc2c(s1)-c1c(c(C3CC3)nn1-c1ccc(C(=O)N(C)[C@H]3CC[C@@H](N4CCCCC4)CC3)cc1F)CC2 | > 6.22 |

The next lines start with the values.

| pIC50 | Compound |
| --- | --- |
| > 6.22 | CC(=O)Nc1nc2c(s1)-c1c(c(C3CCC3)nn1-c1ccc(C(=O)NC3CCN(C4CCCC4)CC3)cc1Cl)CC2 |
| > 6.22 | CNC(=O)c1ccc(-n2nc(C3CCC3)c3c2-c2sc(NC(C)=O)nc2CC3)c(Cl)c1 |
| > 6.22 | CC(=O)Nc1nc2c(s1)-c1c(c(C3CC3)nn1-c1ccc(CC(=O)NC3CCN(C4CCCC4)CC3)cc1Cl)CC2 |
| > 6.22 | CC(=O)Nc1nc2c(s1)-c1c(c(C3CC3)nn1-c1ccc(N)cc1Cl)CC2 |
| > 6.22 | CC(=O)Nc1nc2c(s1)-c1c(c(C3CC3)nn1-c1ccc(C(=O)NC3CCN(C4CCCC4)CC3)cc1Cl)CC2 |
| > 6.22 | CC(=O)Nc1nc2c(s1)-c1c(c(C3CCCC3)nn1-c1ccc(C(=O)N(C)[C@H]3CC[C@@H](N4CCCC4)CC3)cc1Cl)CC2 |
| > 6.22 | CC(=O)Nc1nc2c(s1)-c1c(c(C3CC3)nn1-c1ccc(C(=O)NC[C@@H]3CCCN3)c(Cl)c1)CC2 |
| > 6.22 | CC(=O)Nc1nc2c(s1)-c1c(c(C3CC3)nn1-c1ccc(C(=O)N(C)[C@H]3CC[C@@H](N4CCCCC4)CC3)cc1Cl)CC2 |
| > 6.22 | CC(=O)Nc1nc2c(s1)-c1c(c(C3CC3)nn1-c1ccc(C(=O)N[C@@H]3CCN(CC4CCCC4)C3)cc1Cl)CC2 |
| > 6.22 | CC(=O)Nc1nc2c(s1)-c1c(c(C3(C)CC3)nn1-c1ccc(C(=O)NC3CCN(C4CCCC4)CC3)cc1Cl)CC2 |
| > 6.22 | CC(=O)Nc1nc2c(s1)-c1c(c(C3CC3)nn1-c1ccc(C(=O)NC3CCN(C4CCCCC4)CC3)cc1Cl)CC2 |
| > 6.22 | CC(=O)Nc1nc2c(s1)-c1c(c(C3CCCC3)nn1-c1ccc(C(=O)N[C@H]3CC[C@@H](N4CCCCC4)CC3)cc1Cl)CC2 |
| > 6.22 | CC(=O)Nc1nc2c(s1)-c1c(c(C3CC3)nn1-c1ccc(C(=O)N(C)Cc3ccncc3)cc1Cl)CC2 |
| > 6.22 | CC(=O)Nc1nc2c(s1)-c1c(c(C3CC3)nn1-c1ccc(C(=O)N[C@H]3CCN(CC4CCCC4)C3)cc1F)CC2 |
| > 6.22 | CC(=O)Nc1nc2c(s1)-c1c(c(C3CC3)nn1-c1ccc(C(=O)N[C@@H]3CCN(CC4CCCC4)C3)cc1C)CC2 |
| > 6.22 | CCCN1CCC(NC(=O)c2ccc(-n3nc(C4CC4)c4c3-c3sc(NC(C)=O)nc3CC4)c(C)c2)CC1 |
| > 6.22 | CC(=O)Nc1nc2c(s1)-c1c(c(C3CC3)nn1-c1ccc(C(=O)N[C@@H]3CCN(C4CCCCC4)C3)cc1Cl)CC2 |

| pIC50 | Compound |
| --- | --- |
| > 6.22 | CC(=O)Nc1nc2c(s1)-c1c(c(C3CC3)nn1-c1ccc(NCC3CCCCC3)cc1Cl)CC2 |
| > 6.22 | CC(=O)Nc1nc2c(s1)-c1c(c(C3CC3)nn1-c1ccc(C(=O)N[C@H]3CC[C@@H](N4CCCC4)CC3)cc1C)CC2 |
| > 6.22 | CCCN1CCC(NC(=O)c2ccc(-n3nc(C4CC4)c4c3-c3sc(NC(C)=O)nc3CC4)cc2Cl)CC1 |
| > 6.22 | CCCN1CCC(C(=O)Nc2ccc(-n3nc(C4CC4)c4c3-c3sc(NC(C)=O)nc3CC4)c(Cl)c2)CC1 |
| > 6.22 | CC(=O)Nc1nc2c(s1)-c1c(c(C3CC3)nn1-c1ccc(CC(=O)N[C@@H]3CCN(C4CCCC4)C3)cc1Cl)CC2 |
| > 6.22 | CC(=O)Nc1nc2c(s1)-c1c(c(C3CC3)nn1-c1ccc(CC(=O)NC3CCCCC3)cc1Cl)CC2 |
| > 6.22 | CC(=O)Nc1nc2c(s1)-c1c(c(C3CC3)nn1-c1ccc(C(=O)NC3CCN(C4CCCC4)CC3)cc1F)CC2 |
| > 6.22 | CC(=O)Nc1nc2c(s1)-c1c(c(C3CC3)nn1-c1ccc(C(=O)N(C)C3CCN(C4CCCC4)CC3)cc1Cl)CC2 |
| > 6.22 | CC(=O)Nc1nc2c(s1)-c1c(c(C3CC3)nn1-c1ccc(C(=O)N[C@H]3CC[C@@H](N(C)CC4CCCC4)CC3)cc1C)CC2 |
| > 6.22 | CC(=O)Nc1nc2c(s1)-c1c(c(C3CC3)nn1-c1ccccc1C)CC2 |
| > 6.22 | CCCN1CC[C@@H](NC(=O)c2ccc(-n3nc(C4CC4)c4c3-c3sc(NC(C)=O)nc3CC4)cc2Cl)C1 |
| > 6.22 | CC(=O)Nc1nc2c(s1)-c1c(c(C3CC3)nn1-c1ccc(C(=O)N[C@@H]3CCN(C4CCCC4)C3)cc1F)CC2 |
| > 6.22 | CC(=O)Nc1nc2c(s1)-c1c(c(C3CCCC3)nn1-c1ccc(C(=O)NC3CCN(C4CCOCC4)CC3)cc1Cl)CC2 |
| > 6.22 | CC(=O)Nc1nc2c(s1)-c1c(c(C3(C)CC3)nn1-c1ccc(C(=O)NC3CCN(C(C)C)CC3)cc1Cl)CC2 |
| > 6.22 | CC(=O)Nc1nc2c(s1)-c1c(c(C3CC3)nn1-c1ccc(CC(=O)N[C@H]3CC[C@@H](N4CCCC4)CC3)cc1Cl)CC2 |
| > 6.22 | CCN(C(=O)c1ccc(-n2nc(C3CC3)c3c2-c2sc(NC(C)=O)nc2CC3)c(Cl)c1)[C@H]1CC[C@@H](N2CCCC2)CC1 |
| > 6.22 | CC(=O)Nc1nc2c(s1)-c1c(c(C3CC3)nn1-c1ccc(C(=O)NC3CCN(C4CCCCC4)CC3)cc1F)CC2 |
